Measured values published in ChEMBL document CHEMBL3507680, “University of Dundee, Gates Library screen for HepG2 cell viability”.

experiment: Human HepG2 cell viability assay in 384 well format; type: toxicity, cell-based; parameters: dose 125 nL, time 70.5 hour; concentration not given beside the values; details: HepG2 cells, read-out: Inhibition

SMILES | cytotoxicity at 70.5 h [%]
CC(=O)Nc1nc(C2CCN(C(C)=O)CC2)cs1 | -22
O=C(O)[C@]12CCCN(CC3CCOC3)C[C@H]1CN(c1ncccn1)C2 (stereo partly specified) | -5.74
CN(C)CCNC(=O)[C@H]1C[C@@H]2CN(C(=O)NCc3ccccc3)C[C@H]1O2 | -14.9
CCN1Cc2cc(F)ccc2N(C(=O)C2CCC2)CCC1=O | -9.67
CN(C)CCO[C@H]1CN(Cc2ccc3c(c2)OCO3)[C@@H]2COC[C@H]12 | -4.2
Cn1ccnc1CC1CCCN(C(=O)Cc2ccccc2)C1 (stereo unspecified) | -1.68
O=C(c1cc2c(s1)CCC2)N1CCC(c2ccncc2)CC1 | 15.8
NC(=O)N1CCCC(C(=O)NCc2noc(Cc3ccccc3)n2)C1 (stereo unspecified) | -12.7
CC(=O)c1ccc(Nc2nc(N)nc3c2nc(C)n3C)cc1 | 4.46
O=C(O)c1ccccc1-c1cnc(Cn2c(=O)cc[nH]c2=O)s1 | -6.43
O=C1NCCCC12CCN(Cc1ccc(SC3CCCCC3)o1)C2 (stereo unspecified) | 5.14
Cn1c(-c2ccc(F)cc2)cn2cc(C(=O)N3CC[C@@H](O)C3)nc2c1=O | -10.1
CCN1CCC2(COCc3cnc(NCC4CC4)nc32)C1 (stereo unspecified) | -4.64
COc1cccc(C(c2c(C)n[nH]c2O)c2c(C)n[nH]c2O)c1OC | -11.7
N#CC1(NC(=O)COc2cc(Cl)cc(Cl)c2)CCOCC1 | -5.72
COc1cc(NCc2ccccc2-n2cncn2)nc(N)n1 | -6.05
CC(NCC(F)(F)F)c1ccc(S(C)(=O)=O)c(F)c1 (stereo unspecified) | 12.5
CNC(=O)[C@@]12CCC3(CCN(S(C)(=O)=O)CC3)[C@@H]1CN(C(C)=O)C2 | -0.353
CCN1CCc2[nH]cnc2C12CCN(Cc1ccc3nsnc3c1)CC2 | -5.41
c1cnc(N2CCN(CCn3ccnc3-c3c[nH]cn3)CC2)nc1 | -6.35
O=C(CCc1ccco1)N1CCCC(n2cccn2)C1 (stereo unspecified) | -0.72
NC(=O)C1CCN(CCc2ccc(NC(=O)C3CC3)cc2)CC1 | -3.12
Cc1ccc(N2C[C@@H]3CCCO[C@@H]3[C@H](N3CCCC3)C2)nn1 | 27

SMILES | cytotoxicity at 70.5 h [%]
COCCCN1CC2(CCC1=O)CCN(Cc1cc(C)no1)CC2 | 12.2
CCn1ccnc1CN1CCN(CCOc2ccccc2C#N)CC1 | -19.6
CC(NC1(CNC(=O)C(C)(C)C#N)CCOCC1)c1ccccc1 (stereo unspecified) | 15.5
CCN(CC)S(=O)(=O)CCNc1nnc(C(C)C)s1 | 6.99
O=C(c1cccs1)N1CCOCC2(C1)CN(c1cccnc1)C(=O)CO2 (stereo unspecified) | -16.5
Cc1cnn(CCNCc2cc(-c3ccccc3)no2)c1 | 7.59
O=C(Cc1cn2ccsc2n1)N1CCCC(n2cncn2)C1 (stereo unspecified) | 0.86
CCN(CC1CCCN(CCc2cccc(OC)c2)C1)C(=O)CN(C)C (stereo unspecified) | -0.489
c1cnnc(N2CCCC2CNCc2noc(C3CC3)n2)c1 (stereo unspecified) | 27.1
Cc1cc(=O)n(CC(=O)Nc2ccc(Cl)cc2)nc1C | -2.9
Cc1nc2c(c(NCc3nc4ccccc4s3)n1)CCNCC2 | -4.98
CCN(CC1CCOC1)C(=O)c1ccccc1N1CCOCC1 (stereo unspecified) | 18.7
O=C(O)[C@@]12CN(c3cnccn3)C[C@@H]1CN(C1CCCC1)C2 | -7.64
CCc1n[nH]c(C2CN(C(=O)c3nc(C)ncc3Cl)CCO2)n1 (stereo unspecified) | -7.75
CC(Cn1cccn1)NCc1csc(-c2ccccc2)n1 (stereo unspecified) | -3.84
c1csc(-c2nc(CNC3CCc4ncnn4C3)co2)c1 (stereo unspecified) | -10
CC(C)Oc1ccc2c(NC(=O)CNC(N)=O)nn(CC(F)(F)F)c2c1 | 3.1
O=C(NCC1CCCO1)c1cc(-c2ccncc2)c2cnccc2n1 (stereo unspecified) | -8.71
CCc1noc(CS(=O)(=O)Cc2nc(Cc3ccccc3)no2)n1 | -5.38
Cc1noc(C)c1-c1cc(CCC2CN(CCC(N)=O)CCO2)ncn1 (stereo unspecified) | -2.2
Cc1cnn(CC(C)NCc2csc(-c3ccsc3)n2)c1 (stereo unspecified) | -0.817
CC(NC(=O)N1CCCN(C)CC1)c1ccc(S(N)(=O)=O)cc1 (stereo unspecified) | -4.13
COCC1CC2(CCNCC2)CN1c1ncccn1 (stereo unspecified) | 2.77

SMILES | cytotoxicity at 70.5 h [%]
Cc1ccccc1CNC(=O)Cn1ncc2c1c(C)nn2C | -9.91
COCCNC(=O)c1cc(F)ccc1NS(C)(=O)=O | -1.48
CN(C)C(=O)N1CCC2(CCC(C(=O)N3CCCC3)O2)CC1 (stereo unspecified) | -16.3
CNc1cc(C(=O)N2CCOC(C(=O)NC3CCCC3)C2)ccn1 (stereo unspecified) | -2.84
c1cc2c(cc1-n1nc(C3CC3)nc1-c1csnn1)OCCO2 | 2.73
Cc1noc([C@@H]2CCO[C@@H]3CCN(C(=O)Cc4ccsc4)C[C@@H]32)n1 | 11.3
O=C(O)[C@@H]1CN(Cc2ccc3nsnc3c2)C[C@H]1c1ccncc1 | 6.98
CC(C)C1C(=O)NCCN1C(=O)CCCc1nc(C(C)(C)C)no1 (stereo unspecified) | -3.75
Cc1ccnc(OC[C@@]23CCO[C@@H]2CCN(c2ncccn2)C3)n1 | 5.78
CCN(CC)Cc1cc(C(=O)N2CC(C)(C)[C@@](C)(O)C2)c(C)o1 | 8.35
O=C(CCc1ccco1)N1CCc2[nH]nc(COc3ccccc3)c2C1 | 51.5
CS(=O)(=O)NCC1CCCN(C(=O)c2ccco2)C1 (stereo unspecified) | -6.79
COc1cc(CNC2CCc3nc(C)nn3C2)cc2c1OCO2 (stereo unspecified) | -5.53
O=c1nc(SCc2cccnc2)c2c(n1CCO)CCC2 | -7.99
Cc1ncsc1CCC(=O)N1CCCC1c1cccnc1 (stereo unspecified) | -6.95
Cc1oncc1C(=O)N1CC[C@H]2[C@@H]1CCC(=O)N2c1cccnc1 | -14.4
Cn1cc(CN2C[C@H]3CCC[C@@H](CNc4nccn4C)[C@H]3C2)cn1 | -3.76
COc1ccccc1[C@@H]1CN(CC2CCC2)C[C@H]1C(=O)O | -5.88
Cc1cc2c(cc1CNC(Cc1cccs1)c1nccs1)OCO2 (stereo unspecified) | 1.05
CCS(=O)(=O)CCNC(=O)c1cc2n(n1)CCCO2 | -5.74
Cc1nc(C(NC(=O)c2cc(C(C)C)[nH]n2)c2ccccc2)n[nH]1 (stereo unspecified) | -11.7
c1cncc(CN2CCCn3nnc(CN4CCCC4)c3C2)c1 | -64.2
O=C(CC1=CCCCC1)Nc1ccc(CN2C(=O)CCC2=O)cc1 | -3.73

SMILES | cytotoxicity at 70.5 h [%]
O=C(Cc1ccc(F)cc1Cl)N1C[C@@H](CN2CCC(O)CC2)[C@@H](CO)C1 | -3.43
NCCn1nc(C2CCN(Cc3ccc(Cl)c(Cl)c3)C2)c2nccnc21 (stereo unspecified) | -4.77
O=C(NCCn1ccc(-c2ccccn2)n1)c1ccncc1 | 11.3
Cc1cccc(CN2CCC3(CCCN(Cc4cnn(C)c4)C3)C2=O)n1 (stereo unspecified) | -18.3
Cc1c(CN(C)c2cc(C3CCCNC3)ncn2)[nH]c2ccccc12 (stereo unspecified) | -14.2
COc1cccc(CC2(C(=O)O)CCN(c3ccc(Cl)cn3)CC2)c1 | -3.25
COc1ccc(-n2nnc(C(N)=O)n2)cc1 | -7.17
Cc1ccc(NCc2ncc(C(C)(C)C)o2)c(Cl)c1 | 1.61
COCCN1CCCC1c1nccnc1Nc1nc(C)cs1 (stereo unspecified) | -21.9
COCCN1CCC(c2nc3ccccc3[nH]2)CC1 | -11
COC(=O)CN(C(=O)c1cc(C)c(F)cc1F)c1cccc(C)n1 | -5.14
O=C1COC2(COCCN(Cc3ccsc3)C2)CN1c1ccc(F)cc1 (stereo unspecified) | -2.28
CS(=O)(=O)N1CC(c2ccnc(Nc3ccccn3)n2)C1 | -3.95
Cc1cc(N2CCC3(CC2)C(C(=O)O)CC(=O)N3C)nc2ccccc12 (stereo unspecified) | -6.81
CC(=O)N1CCC(C(=O)N2CCCC(Cc3cccc(C)n3)C2)CC1 (stereo unspecified) | -4.08
Cc1ccc(N2C[C@H]3OCC[C@H]3[C@H](C(=O)NCC3CC3)C2)nn1 | -12.5
COc1ccc(-c2cc(C3CCNCC3)ccn2)cc1 | -4.77
Cc1nn(C)c(C)c1C(=O)N1CCN(C(=O)CC2CCCCC2)CC1 | 11.5
CCOCCC(=O)Nc1cccc(Cl)c1C(N)=O | -0.685
CC(NC(=O)CCC1CCCCC1)c1nnc2n1CCC2 (stereo unspecified) | -4.91
Cn1cnc(S(=O)(=O)N2C[C@H](OCC3CC3)[C@H]3OCCC[C@H]32)c1 | 16.2
CCn1cc2c(n1)C(COC)CN(C(=O)COc1ccccc1C)C2 (stereo unspecified) | -7.2
CN(Cc1cccc(C(F)(F)F)c1)Cc1nc(-c2cnccn2)no1 | -8.53

SMILES | cytotoxicity at 70.5 h [%]
CC(C)n1nnnc1-c1ccc(NC(=O)CCC(F)(F)F)cc1F | -18
CCn1nc(C(=O)N2CCNCC2C(=O)Nc2ccc(C)nc2)cc1C (stereo unspecified) | 3.8
Cc1cc(C)nc(NC(=O)C(C)Oc2ccc3c(c2)OCO3)n1 (stereo unspecified) | -11.4
CN1CCN(Cc2cn3c(n2)CN(Cc2ccncc2)CC3)CC1 | 14
Cc1cc(N(C)Cc2c(C)noc2C)n2nc(C)c(C)c2n1 | 3.35
CCOCCn1c(=O)[nH]c2cc(C(=O)N(C)CCc3cn[nH]c3)ccc21 | 18.1
CC(C)c1ncncc1C(=O)NCCN1CCOCC1 | 1.2
Cc1cnc(N2CCC3(CCN(Cc4csc(C)n4)C3=O)C2)nc1 (stereo unspecified) | -5.87
COc1ccc(F)cc1CN1CCCn2nc(CNS(C)(=O)=O)cc2C1 | -5.04
COCCCNC(=O)c1ccccc1-n1cc(CN(C)C)cn1 | -7.43
CCN(Cc1ccncc1)C1CCN(c2ccccc2)C1=O (stereo unspecified) | 1.49
CN1CCN(Cc2cnc3n2CCN(C(=O)c2ccnnc2)C3)CC1 | -14.6
N#CC(NC(=O)CNC(=O)c1ccccc1)c1ccsc1 (stereo unspecified) | -3.11
c1ccc2cc(OCCN3CCn4c(nnc4C4CC4)C3)ccc2c1 | 31
Cc1cn2c(CN(C)C(=O)c3nccnc3N)c(C)nc2s1 | 0.596
Cc1nccn1CCC(=O)N1CCC2(CCC(=O)N(CC3CC3)C2)CC1 | 2.21
Cc1ncccc1NC(=O)c1nc2c(n1C)CCN(C(=O)C1CC1)C2 | -8.28
CCN1CCC(CC(=O)N[C@H](C(=O)O)c2cccc(F)c2F)CC1 | -2.11
CCn1cc(NC(=O)C2CCN(Cc3noc(C(C)C)n3)CC2)cn1 | 0.996
